Experiments:
human hepatocytes = assay: Hepatocytes stability assay (human hepatocytes); type: in vitro ADME; conditions: for CLint (μL/min/million cells): cryopreserved human hepatocytes (pool of 50 mixed gender), 1 μM test compound, 1×10^6 cell/mL, 37 degrees C; for Extraction Ratio (ER): human hepatocytes, scaled hepatic clearance divided by liver blood flow (well-stirred model, fu assumed unity)
In short: (§1)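 Compound at 1 μM (0.1% DMSO) was incubated with cryopreserved pooled human hepatocytes, 1×10^6 cells/mL in Krebs-Henseleit buffer, at 37 °C, sampled up to 240 min. Parent depletion by LC-MS/MS; half-life from first-order decay gave CLint, scaled to hepatic clearance by well-stirred model (fu assumed 1) and extraction ratio.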

[1] = target: T1, human orexin-2 receptor (OX2R) (Homo sapiens, UniProt O43614); assay: Human OX2R IP1 assay; type: cell-based; conditions: T-Rex CHO cells stably overexpressing human OX2R; IP1 accumulation; 1 hr at 37 degrees C; mean EC50
T1 construct: expressed in transfected cells
T1 sequence (O43614 1-444): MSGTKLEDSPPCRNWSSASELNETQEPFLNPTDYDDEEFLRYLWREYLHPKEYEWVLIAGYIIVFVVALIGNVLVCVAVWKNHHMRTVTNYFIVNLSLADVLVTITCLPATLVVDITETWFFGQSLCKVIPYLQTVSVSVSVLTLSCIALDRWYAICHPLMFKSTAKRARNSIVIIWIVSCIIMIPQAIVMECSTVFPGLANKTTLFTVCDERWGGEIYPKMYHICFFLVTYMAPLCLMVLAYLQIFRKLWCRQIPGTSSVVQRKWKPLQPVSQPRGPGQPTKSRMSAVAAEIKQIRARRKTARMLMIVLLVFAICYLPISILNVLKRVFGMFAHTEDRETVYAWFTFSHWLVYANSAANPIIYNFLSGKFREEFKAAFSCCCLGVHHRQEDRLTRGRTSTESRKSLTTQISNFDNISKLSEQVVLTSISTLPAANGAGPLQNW
In short: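 T-Rex CHO cells stably expressing human OX2R, doxycycline-induced (1 μg/mL) overnight, treated with compounds 1 h at 37 °C in pH 7.4 buffer with 50 mM LiCl. IP1 accumulation read by HTRF competitive immunoassay after 1 h at room temperature; agonist EC50 reported as mean ± S.E.M.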

MDCK-MDR1 cells = assay: MDCK-MDR1 permeability assay; type: in vitro ADME; conditions: MDCK-MDR1 cells; for Efflux ratio (ER): Papp B→A divided by Papp A→B, 3 μM, 2 hours; for Papp A → B (10^−6 cm/s): test compound 3 μM, 2 hours at 37 degrees C, apical to basolateral
In short: (§2)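 Receiver and donor compartments were analysed by LC-MS/MS after a 2 h incubation at 37 °C of 3 μM compound in HBSS on MDCK-MDR1 monolayers, run in both directions with Lucifer Yellow (100 μM) as integrity marker. Apparent permeability came from translocation rate, insert area and initial concentration; B→A/A→B Papp gave the efflux ratio, alongside percent recovery.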

[2] = Hepatocytes stability assay (human hepatocytes); type: in vitro ADME; conditions: both sexes, human, cryopreserved hepatocytes, cryopreserved human hepatocytes (pool of 50 mixed gender); 1 μM test compound; 1×10^6 cell/mL; 37 degrees C; read-out: CLint (μL/min/million cells)
In short: as §1

MDR1 = assay: MDCK-MDR1 permeability assay; type: in vitro ADME; conditions: dog, MDCK-MDR1, MDCK-MDR1 cells; for efflux ratio at 2 h, 3 μM: Papp B→A divided by Papp A→B, read-out: Efflux ratio (ER); for Papp A→B at 2 h, 3 μM: test compound 3 μM, 2 hours at 37 degrees C, apical to basolateral
In short: as §2

Sprague-Dawley rats = assay: Assessment of wake promotion in Sprague-Dawley rats (EEG/EMG); type: in vivo, rat; conditions: male Sprague-Dawley rats; PO; 3 mpk; dosed at ZT5; 6-hour post-dose period
Protocol: Wake promotion was assessed using electroencephalography (EEG) and electromyography (EMG) in adult male Sprague-Dawley rats. All rats (Charles River Laboratories, Raleigh, NC, USA) were intraperitoneally implanted with telemetry devices (F50-EEE, Data Sciences International Inc., MN, USA) under isoflurane anesthesia. For EEG, stainless steel screws were implanted over frontal cortex and parietal cortex, and reference screws were placed over cerebellum. Additionally, an electrode was placed in neck muscle for EMG. Rats were given carprofen post-surgery and underwent a 7 to 10-day recovery period. Rats habituated to the experimental room for 7 days and were maintained on a 12-hour light-dark cycle.
EEG and EMG data were recorded using the DSI telemetry system and Ponemah software (Data Sciences International Inc., MN, USA). Sleep-wake stages were scored both manually and with Somnivore, a supervised machine learning software platform, in 10 second epochs. Records were visually inspected as needed post-processing.
All test compounds were dissolved in 5% DMSO and suspended in 95% saline with 0.5% methylcellulose and 0.5% tween. […] Unless otherwise indicated, all compounds were dosed orally. Recordings for each rat were initiated immediately after dosing and lasted for 6 hours post-dose.
Two key endpoints include wakefulness time and cortical activation time. Wakefulness time is derived from the sleep-wake stage analysis. Cortical activation time is based on the duration in which frontal gamma oscillatory activity (30-100 Hz), a key feature of wakefulness, was elevated relative to a pre-treatment baseline. Mean cortical activation time was computed relative to vehicle treatment for the 6-hour post-dose period.

Structure (SMILES)	CLint (μL/min/million cells) (human hepatocytes)	Extraction Ratio (ER) (human hepatocytes)	EC50 [1]	Efflux ratio (ER) (MDCK-MDR1 cells)	Papp A → B (10^−6 cm/s) (MDCK-MDR1 cells)	hepatocyte CLint at 1 μM [2]	efflux ratio at 2 h, 3 μM (MDR1)	Papp A→B at 2 h, 3 μM (MDR1)	Mean cortical activation time (% vehicle treatment) (Sprague-Dawley rats)
O=C1COc2ccccc2[C@H]2CC[C@H](CC2)OCC2[C@@H](NS(=O)(=O)C3CCOC3)CCCN12 (stereo in doubt) [Compound 73]	21 μL/min/million cells	0.76	< 10 nM	>100	0.23 10^−6 cm/s	–	–	–	–
Cc1ncnc2c1[C@H]1CC[C@H](CC1)OC[C@H]1[C@@H](NS(C)(=O)=O)CCCN1C(=O)CO2 (stereo in doubt) [Compound 72]	<1.9 μL/min/million cells	<0.22	< 10 nM	49	<0.091 10^−6 cm/s	–	–	–	–
Cc1ncnc2c1[C@H]1CC[C@H](CC1)OCC1[C@@H](NS(=O)(=O)C3CC3)CCCN1C(=O)CO2 (stereo in doubt) [Compound 68]	–	0.37	–	–	–	3.9 µL/min/1e6 cells	72	0.24 ×10⁻⁶ cm/s	157.14 % vehicle treatment
O=C1COc2ncncc2[C@H]2CC[C@H](CC2)OCC2[C@@H](NS(=O)(=O)C3CC3)CCCN12 (stereo in doubt) [Compound 97]	–	0.43	–	–	–	5.2 µL/min/1e6 cells	44	0.42 ×10⁻⁶ cm/s	79.25 % vehicle treatment
Cc1ccc2c(c1)C1CCC(CC1)OC[C@H]1[C@@H](NS(C)(=O)=O)CCCN1C(=O)CO2 (stereo in doubt) [Compound 17]	–	0.53	–	–	–	7.5 µL/min/1e6 cells	40	0.84 ×10⁻⁶ cm/s	212.31 % vehicle treatment
Cc1ccnc2c1C1CCC(CC1)OC[C@H]1[C@@H](NS(C)(=O)=O)CCCN1C(=O)CO2 (stereo in doubt) [Compound 12]	–	0.59	–	–	–	9.7 µL/min/1e6 cells	74	0.49 ×10⁻⁶ cm/s	108.70 % vehicle treatment
CC(C)S(=O)(=O)N[C@H]1CCN2C(=O)COc3ncccc3[C@H]3CC[C@H](CC3)OCC12 (stereo in doubt) [Compound 101]	–	0.74	–	–	–	19 µL/min/1e6 cells	14	3.9 ×10⁻⁶ cm/s	109.66 % vehicle treatment
CC(C)S(=O)(=O)N[C@H]1CCCN2C(=O)COc3ccccc3C3CCC(CC3)OC[C@@H]12 (stereo in doubt) [Compound 3]	–	0.76	–	–	–	21 µL/min/1e6 cells	10	1.8 ×10⁻⁶ cm/s	204.79 % vehicle treatment
Cc1ccnc2c1[C@H]1CC[C@H](CC1)OCC1[C@@H](NS(=O)(=O)C(C)C)CCN1C(=O)CO2 (stereo in doubt) [Compound 93]	–	0.75	–	–	–	20 µL/min/1e6 cells	11	4.7 ×10⁻⁶ cm/s	138.14 % vehicle treatment
Cc1cccc2c1C1CCC(CC1)OC[C@H]1[C@@H](NS(C)(=O)=O)CCCN1C(=O)CO2 (stereo in doubt) [Compound 2]	–	0.80	–	–	–	28 µL/min/1e6 cells	46	0.69 ×10⁻⁶ cm/s	182.50 % vehicle treatment
O=C1COc2ccccc2C2CCC(CC2)OC[C@H]2[C@@H](NS(=O)(=O)C3CC3)CCCN12 (stereo in doubt) [Compound 1]	–	0.82	–	–	–	31 µL/min/1e6 cells	6.7	1.6 ×10⁻⁶ cm/s	160.00 % vehicle treatment
Cc1ccnc2c1C1CCC(CC1)OC[C@H]1[C@@H](NS(=O)(=O)C(C)C)CCCN1C(=O)CO2 (stereo in doubt) [Compound 10]	–	0.58	–	–	–	9.4 µL/min/1e6 cells	> 100	0.38 ×10⁻⁶ cm/s	82.61 % vehicle treatment
CS(=O)(=O)N[C@H]1CCCN2C(=O)COc3ccc(O)cc3[C@H]3CC[C@H](CC3)OCC12 (stereo in doubt) [Compound 96]	–	0.25	–	–	–	2.3 µL/min/1e6 cells	9.2	0.53 ×10⁻⁶ cm/s	74.48 % vehicle treatment
Cc1ccnc2c1[C@H]1CC[C@H](CC1)OCC1[C@@H](NS(=O)(=O)C3CC3)CCN1C(=O)CO2 (stereo in doubt) [Compound 92]	–	0.78	–	–	–	24 µL/min/1e6 cells	18	3.4 ×10⁻⁶ cm/s	97.94 % vehicle treatment
O=C1COc2ccccc2C2CCC(CC2)OC[C@H]2[C@@H](NS(=O)(=O)C(F)(F)F)CCCN12 (stereo in doubt) [Compound 11]	–	0.38	–	–	–	4.2 µL/min/1e6 cells	52	1.6 ×10⁻⁶ cm/s	411.43 % vehicle treatment
CC(C)S(=O)(=O)N[C@H]1CCCN2C(=O)COc3nccnc3[C@H]3CC[C@H](CC3)OCC12 (stereo in doubt) [Compound 66]	–	<0.22	–	–	–	< 1.9 µL/min/1e6 cells	88	0.22 ×10⁻⁶ cm/s	141.30 % vehicle treatment

Reference: patent publication US12006330B2, “Substituted macrocyclic compounds and related methods of treatment” (Alkermes, Inc., priority 2020, dated 2024)
